Results on six molecules are retold here after US8334316B2, “Substituted organosulfur compounds and methods of using thereof” (ACEA Biosciences, Inc., priority 2004, dated 2012).

Common to all, as to type: cell-based
In test [1] the test system is OVCAR4 (human ovarian cancer cell line). The experiment in a line: RT-CES system cell proliferation/cytotoxicity IC50, OVCAR4. To be noted: OVCAR-4, time point of maximum inhibition. The text has this: The RT-CES system comprises three components, an electronic sensor analyzer, a device station and 16× or 96× microtiter plate devices. Microelectrode sensor array was fabricated on glass slides with lithographical microfabrication methods and the electrode-containing slides are assembled to plastic trays to form electrode-containing wells. Each 16× (or 96×) microtiter plate device used in RT-CES system comprises up to 16 (or 96) such electrode-containing wells. The device station receives the 16× or 96× microtiter plate devices and is capable of electronically switching any one of the wells to the sensor analyzer for impedance measurement. In operation, the devices with cells cultured in the wells are placed into a device station that is located inside an incubator. Electrical cables connect the device station to the sensor analyzer. Under the RT-CES software control, the sensor analyzer can automatically select wells to be measured and continuously conduct impedance measurements. The impedance data from the analyzer is transferred to a computer, analyzed and processed by the integrated software.
To quantify cell status based on the measured cell-electrode impedance, a parameter termed Cell Index is derived, according to
[formula] where Rb(f) and Rcell(f) are the frequency dependent electrode resistances (a component of impedance) without cells or with cell present, respectively. N is the number of the frequency points at which the impedance is measured. Thus, Cell Index is a quantitative measure of the status of the cells in an electrode-containing well. Under the same physiological conditions, more cells attached on to the electrodes leads to larger Rcell(f) value, leading to a larger value for Cell Index. Furthermore, for the same number of cells present in the well, a change in the cell status such as morphology will lead to a change in the Cell Index. For example, an increase in cell adhesion or cell spreading leads to larger cell-electrode contact area which will lead to an increase in Rcell(f) and thus a larger value for Cell Index. The Cell Index may also be calculated using a formula different from the one described here. Other methods for calculating the Cell Index based on impedance measurement can be found in PCT application number PCT/US04/37696, fined on Nov. 12, 2004, PCT application number PCT/US05/04481, filed on Feb. 9, 2005, U.S. patent application Ser. No. 10/987,732, filed on Nov. 12, 2004, and U.S. patent application Ser. No. 11/055,639, filed on Feb. 9, 2005.
OVCAR4 cells (human ovarian cancer cells) were seeded into wells of 16× or 96× microtiter plate devices (electronic plates, i.e., the plates comprise microelectrode sensor arrays in the wells of the plate) with an initial seeding density of 10,000 cells per well and were pre-incubated in incubator under standard cell culture conditions for about 27 hrs. Dibenzyl trisulfide solution in DMSO was added into wells following the incubation period. The cell status was monitored prior to and after the compound addition using RT-CES system. The cell indexes of different wells were between 1.4 and 1.7 just before the compound addition. […] The cell index was normalized against the cell index values at a time point just after compound addition (about 28 hrs after cell seeding).
For the assay performed on the RT-CES system, the cells were seeded into the 16× or 96× microtiter plate devices (electronic plates, i.e., the plates comprise microelectrode sensor arrays in the wells of the plate) at the seeding density ranging from 5000 cells/well to 15,000 cells/well. The cells were incubated at 5% CO2 and 37° C. for overnight till the cell indices reached the growth phase where the cell index was between 0.8 and 1.2. Serially diluted compounds were then added to the cells followed by dynamic monitoring of the effect of the compounds on the cell proliferation and cytotoxicity. […]

Test [2] has as its system H460 (human non small cell lung cancer cell line). The experiment in a line: RT-CES system cell proliferation/cytotoxicity, H460. To be noted: NCI-H460, time point of maximum inhibition.
Description: In operation, the devices with cells cultured in the wells are placed into a device station that is located inside an incubator. […] Under the RT-CES software control, the sensor analyzer can automatically select wells to be measured and continuously conduct impedance measurements. The impedance data from the analyzer is transferred to a computer, analyzed and processed by the integrated software.
H460 cells (human lung cancer cells) were seeded into wells of 16× or 96× microtiter plate devices (electronic plates, i.e., the plates comprise microelectrode sensor arrays in the wells of the plate) with an initial seeding density of 8000 cells per well and were pre-incubated in incubator under standard cell culture conditions for about 22 hrs. […] The cell status was monitored prior to and after the compound addition using RT-CES system. […] The cell index was normalized against the cell index values at a time point just after compound addition (about 23 hrs after cell seeding).
For the assay performed on the RT-CES system, the cells were seeded into the 16× or 96× microtiter plate devices (electronic plates, i.e., the plates comprise microelectrode sensor arrays in the wells of the plate) at the seeding density ranging from 5000 cells/well to 15,000 cells/well. The cells were incubated at 5% CO2 and 37° C. for overnight till the cell indices reached the growth phase where the cell index was between 0.8 and 1.2. Serially diluted compounds were then added to the cells followed by dynamic monitoring of the effect of the compounds on the cell proliferation and cytotoxicity. The time-dependent IC50 values for each derivative were calculated based the dose responses of cell index value at different time points after compound treatment.
For test [3], the system named is OVCAR4 (human ovarian cancer cell line). The experiment in a line: MTT assay IC50 (48 h), OVCAR4. Particulars: OVCAR-4, OVCAR4, 48 hours. The method, then: (§1) In another assay format, a test compound is assayed for its cytotoxicity and/or cytostatic effect on certain cancer cell types, using endpoint assay methods. Cells in the NCI cancer cell panel may be used. Cells after a pre-incubation for certain length of time (for example, 8 hrs or 24 hrs) are incubated with a test compound at serially-diluted concentrations (for example, five 10-fold dilutions) for 24 hrs and/or 48 hrs, and/or other specific length of time. The dose dependent cytotoxicity and/or cytostatic effects of test compounds can then be tested and evaluated using the 3-(4,5-dimethylthiazol-2-yl)-2,5-diphenyltetrazolium bromide (MTT) assay method, as described by, for example, Boyd (In Principle of Practice of Oncology, Devita, J. T., Hellman, S. and Rosenberg S. A. (Eds), 1989, Vol, 3, PPO Update, No. 10).
(§2) The anticancer potency of DBTS and its derivatives were tested in 8 different types of human cancer cell lines using the RT-CES system and MTT assay. The 8 cancer cell lines were HT1080 (the human fibrosarcoma cell line), H460 (human non small cell lung cancer cell line), OVCAR4 (the human ovarian cancer cell line), MCF7 (human breast cancer cell line) MDA-MB231 (M231, the human breast cancer cell line) A2780 (the human […] cancer cell line) Jurkat (the human T cell leukemia cell line). The test DBTS derivatives include ACEA100107, ACEA100108, ACEA100109, ACEA100111, ACEA100115, ACEA100116, ACEA100117, ACEA100118, ACEA100119, and ACEA100120.
(§3) For the MTT assay, the cells were seeded into the regular 96× well plates at the cell seeding density ranging from 5000 cells/well to 15,000 cells/well. The cells were incubated at 5% CO2 and 37° C. for overnight. The derivatives were serially diluted and added to the cells. The treatment was terminated after 48 hours of incubation by adding MTT staining reagent. After 4 hours, the staining was stopped by the stop buffer and then the calorimetric measurement was carried out on a microtiter plate reader at dual wave length, 650 nm and 550 nm.
On the technique in general: Formazan colour is commonly taken as a measure of viable cells.

The subject of test [4] is A2780 cells. Briefly: MTT assay IC50 (48 h), A2780. Particulars: Homo sapiens; A2780, 48 hours. The protocol: as §1, §2, §3

Where only a bound is given, the exact number is not on record here.

The term IC50 denotes the point on the concentration scale where inhibition reaches its midpoint.

On to `Clc1ccc(CSSSCc2ccc(Cl)cc2)cc1` [ACEA100118, Di(p-chlorobenzyl)trisulfide], for which the IC50 in test [1] is 2.25 µM; in test [2], 9.6 µM; in test [3] it was more than 50 µM; in test [4] it was 0.8 µM.

For `c1ccc(CSSSCc2ccccc2)cc1` [DBTS, Dibenzyl trisulfide], the IC50 in test [1] was 1.75 µM; in test [2], 11.1 µM; in test [3] it was more than 50 µM; in test [4] it was 1.2 µM.

`Fc1ccc(CSSSCc2ccc(F)cc2)cc1` [ACEA100108, Di(p-fluorobenzyl)trisulfide]: the 50% inhibitory concentration (IC50) in test [1] was 2 µM; in test [2], 9.2 µM; in test [3], more than 50 µM; in test [4], 4.7 µM.

Take `Cc1cccc(CSSSCc2cccc(C)c2)c1` [ACEA100116, di(m-methylbenzyl)trisulfide]: the 50% inhibitory concentration (IC50) in test [1] is 0.6 µM; in test [2], 12.5 µM; in test [3], more than 50 µM; in test [4], 0.8 µM.

Take `FC(F)(F)c1cccc(CSSSCc2cccc(C(F)(F)F)c2)c1` [ACEA100117, Di(m-trifluoromethylbenzyl)trisulfide]: the concentration for half-maximal inhibition (IC50) in test [1] was 33.5 µM; in test [2], more than 50 µM; in test [3], more than 50 µM; in test [4], 11.7 µM.

Turning to `Clc1ccccc1CSSSCc1ccccc1Cl` [ACEA100115, Di(o-chlorobenzyl)trisulfide], the IC50 in test [1] was 0.5 µM; in test [2] it was 23.2 µM; in test [3] it was more than 50 µM; in test [4] it was 1.5 µM.
